Results: patent US8716247B2, “Peptides effective in the treatment of tumors and other conditions requiring the removal or destruction of cells” (Nymox Corporation, priority 2006, dated 2014)
Where no end group is shown, it is not given here.

System: prostate
Test: Intraprostatic infusion of S05A Peptides in rats: histological changes of cell death and prostate volume
Type: in vivo, Male Sprague-Dawley rats
Design: key to Histological Changes of Cell Death at 24 Hours / Histological Changes of Cell Death at 72 Hours: −: Absent; +: Present, Minimal; ++: Present, Moderate; +++: Present, Moderate and Diffuse; ++++: Present, Diffuse and Extensive
Details: for histological findings in prostate of treated rats: rat prostate after intraprostatic infusion, 1.0 mg/kg; for Calculated Mean Volume 24 Hours / Calculated Mean Volume 72 Hours / Calculated Mean Volume 7 Days: rat prostate volume from mean cross-sectional diameters, V=4/3π(D/2)^3; for Calculated Mean Volume 24 Hours / Calculated Mean Volume 72 Hours / Calculated Mean Volume 7 Days / Calculated Mean Volume Overall: 1.0 mg/kg intraprostatic; for Calculated Mean Volume Overall: rat prostate volume, overall across 24 hours, 72 hours and 7 days; for Histological Changes of Cell Death at 24 Hours / Histological Changes of Cell Death at 72 Hours: rat prostate, intraprostatic infusion 300 μl of 1 mg/mL in PBS pH 7.4 (1.0 mg/kg), H & E sections
Protocol: The purpose of this example was to determine the effect of S05A Peptides on tissue at sites of injection.
Male Sprague-Dawley rats (300 gram weight range) were anesthetized with ether and given one of the above S05A Peptides by intraprostatic infusion, a control injection of normal saline or no injection after open surgical visualization of the prostate. The injections consisted of 300 μl of the S05A Peptide 1 mg/mL in PBS pH 7.4. (1.0 mg/kg) (n=36). Rats were painlessly sacrificed after 24 hours (n=12), 72 hours (n=12) and 7 days (n=12). Prostate glands were dissected, fixed in 10% buffered formalin for 24 hours, embedded in paraffin, sectioned, and stained with H & E. For each animal the entire prostate gland was embedded and sectioned. All stained sections were examined histologically and measured. For each prostate at least […] histological sections were examined, and for each histological section two cross-sectional diameters (D) at 90° from each other were measured (total of ≧8 measurements per prostate). The mean of the cross-sectional diameters (D) for each group was used to estimate volume according to V=4/3π(D/2)^3 and the mean volume calculated for each group. Histological changes were assessed on the following scale:
+++ Present, Moderate and Diffuse
++++ Present, Diffuse and Extensive

IDQQVLSRI [S05A-2]
histological findings in prostate of treated rats: extensive cell death, necrosis, loss of glandular epithelium and atrophy
Calculated Mean Volume 24 Hours: 180 mm^3
Calculated Mean Volume 72 Hours: 249 mm^3
Calculated Mean Volume 7 Days: 165 mm^3
Calculated Mean Volume Overall: 198 mm^3
Histological Changes of Cell Death at 24 Hours: ++++
Histological Changes of Cell Death at 72 Hours: ++++

VLSRIKLEIKRCL [S05A-6]
Calculated Mean Volume 24 Hours: 310 mm^3
Calculated Mean Volume 72 Hours: 493 mm^3
Calculated Mean Volume 7 Days: 408 mm^3
Calculated Mean Volume Overall: 404 mm^3
Histological Changes of Cell Death at 24 Hours: +
Histological Changes of Cell Death at 72 Hours: +

RIKLEIK [S05A-5]
Calculated Mean Volume 24 Hours: 249 mm^3
Calculated Mean Volume 72 Hours: 408 mm^3
Calculated Mean Volume 7 Days: 392 mm^3
Calculated Mean Volume Overall: 350 mm^3
Histological Changes of Cell Death at 24 Hours: +
Histological Changes of Cell Death at 72 Hours: +

VLSRIK [S05A-4]
Calculated Mean Volume 24 Hours: 357 mm^3
Calculated Mean Volume 72 Hours: 408 mm^3
Calculated Mean Volume 7 Days: 333 mm^3
Calculated Mean Volume Overall: 366 mm^3
Histological Changes of Cell Death at 24 Hours: +
Histological Changes of Cell Death at 72 Hours: +

KLEIKRCL [S05A-3]
Calculated Mean Volume 24 Hours: 249 mm^3
Calculated Mean Volume 72 Hours: 435 mm^3
Calculated Mean Volume 7 Days: 463 mm^3
Calculated Mean Volume Overall: 382 mm^3
Histological Changes of Cell Death at 24 Hours: +
Histological Changes of Cell Death at 72 Hours: +

IDQQVLSRIKLEI [S05A-7]
histological findings in prostate of treated rats: extensive cell death, necrosis, loss of glandular epithelium and atrophy
Calculated Mean Volume 24 Hours: 180 mm^3
Calculated Mean Volume 72 Hours: 165 mm^3
Calculated Mean Volume 7 Days: 357 mm^3
Calculated Mean Volume Overall: 234 mm^3
Histological Changes of Cell Death at 24 Hours: ++++
Histological Changes of Cell Death at 72 Hours: ++++
